Toxic doses and inconclusive results are not listed. Rule as the data show it: active = T/C of 150% or more; inactive = T/C below 125%.
Test system: L1210 leukemia ip in BDF1 mice, survival T/C
Assay: NCI In Vivo Anticancer Drug Screen. Data for tumor model L1210 Leukemia (intraperitoneal) in B6D2F1 (BDF1) mice
Conditions: endpoint: mean survival time, higher = longer survival
Method in brief: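 Antitumor effect is assessed in tumor-bearing animals. Survival in the compound arm is compared with a vehicle-dosed control arm and expressed as their quotient.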

[1] = dose: 100.0 mg/kg/injection, schedule: Q01DX001 (ip), vehicle: saline
[2] = dose: 200.0 mg/kg/injection, schedule: Q01DX001 (ip), vehicle: saline
[3] = dose: 400.0 mg/kg/injection, schedule: Q01DX001 (ip), vehicle: saline
[4] = dose: 100.0 mg/kg/injection, schedule: Q01DX001 (ip), vehicle: carboxymethylcellulose (CMC)
[5] = dose: 200.0 mg/kg/injection, schedule: Q01DX001 (ip), vehicle: carboxymethylcellulose (CMC)
[6] = dose: 400.0 mg/kg/injection, schedule: Q01DX001 (ip), vehicle: carboxymethylcellulose (CMC)
[7] = dose: 50.0 mg/kg/injection, schedule: Q04DX003 (ip), vehicle: Klucel (hydroxypropylcellulose) (HPC)
[8] = dose: 100.0 mg/kg/injection, schedule: Q04DX003 (ip), vehicle: Klucel (hydroxypropylcellulose) (HPC)
[9] = dose: 200.0 mg/kg/injection, schedule: Q04DX003 (ip), vehicle: Klucel (hydroxypropylcellulose) (HPC)
[10] = dose: 400.0 mg/kg/injection, schedule: Q04DX003 (ip), vehicle: Klucel (hydroxypropylcellulose) (HPC)
[11] = dose: 100.0 mg/kg/injection, schedule: Q04DX003 (ip), vehicle: saline
[12] = dose: 200.0 mg/kg/injection, schedule: Q04DX003 (ip), vehicle: saline

Measured: T/C

O=S(=O)(/C=C/c1ccccc1)c1ccc2ccccc2c1
inactive: dose: 100.0 mg/kg/injection, schedule: Q01DX001 (ip), vehicle: acetone 97 % of control | dose: 100.0 mg/kg/injection, schedule: Q01DX009 (ip), vehicle: acetone 92 % of control | dose: 100.0 mg/kg/injection, schedule: Q04DX003 (ip), vehicle: acetone 102 % of control | dose: 200.0 mg/kg/injection, schedule: Q01DX001 (ip), vehicle: acetone 93 % of control | dose: 200.0 mg/kg/injection, schedule: Q01DX009 (ip), vehicle: acetone 92 % of control | dose: 200.0 mg/kg/injection, schedule: Q04DX003 (ip), vehicle: acetone 105 % of control | dose: 400.0 mg/kg/injection, schedule: Q01DX001 (ip), vehicle: acetone 90 % of control | dose: 400.0 mg/kg/injection, schedule: Q01DX009 (ip), vehicle: acetone 94 % of control | dose: 400.0 mg/kg/injection, schedule: Q04DX003 (ip), vehicle: acetone 102 % of control

CC1(C)OCC(C2OC(C)(C)OC2C(CO)Nc2ccc([N+](=O)[O-])cc2[N+](=O)[O-])O1 (stereo not drawn)
inactive: [1] 98 % of control | [2] 93 % of control | [3] 93 % of control

Nc1ccc2c(c1)C(O)c1cc(Br)ccc1-2 (stereo not drawn)
inactive: [4] 108 % of control | [5] 100 % of control | [6] 105 % of control

NC(=O)COc1ccccc1Cl
inactive: [7] 102 % of control | [8] 94 % of control | [9] 93 % of control

CCCCN1C(=O)C2CCC34C5C(=O)N(CCCC)C(=O)C5C5C=CC3(C2C1=O)C1C(=O)N(CCCC)C(=O)C1N54 (stereo not drawn)
inactive: dose: 50.0 mg/kg/injection, schedule: Q01DX009 (ip), vehicle: Klucel (hydroxypropylcellulose) (HPC) 99 % of control | dose: 100.0 mg/kg/injection, schedule: Q01DX009 (ip), vehicle: Klucel (hydroxypropylcellulose) (HPC) 99 % of control | dose: 200.0 mg/kg/injection, schedule: Q01DX009 (ip), vehicle: Klucel (hydroxypropylcellulose) (HPC) 97 % of control | dose: 400.0 mg/kg/injection, schedule: Q01DX009 (ip), vehicle: Klucel (hydroxypropylcellulose) (HPC) 97 % of control

Cc1cnc(NC(N)=O)nc1-c1ccccc1O
inactive: dose: 100.0 mg/kg/injection, schedule: Q04DX002 (ip), vehicle: Klucel (hydroxypropylcellulose) (HPC) 95 % of control | dose: 200.0 mg/kg/injection, schedule: Q04DX002 (ip), vehicle: Klucel (hydroxypropylcellulose) (HPC) 91 % of control | dose: 400.0 mg/kg/injection, schedule: Q04DX002 (ip), vehicle: Klucel (hydroxypropylcellulose) (HPC) 87 % of control

CCNC(=O)CCCC(=O)OC
inactive: [1] 94 % of control | [2] 103 % of control | [3] 97 % of control

Cc1ccc(S(=O)(=O)N(C)c2ccc3cc(Br)ccc3c2)cc1
inactive: dose: 100.0 mg/kg/injection, schedule: Q01DX005 (ip), vehicle: Klucel (hydroxypropylcellulose) (HPC) 94 % of control | [8] 95 % of control | dose: 200.0 mg/kg/injection, schedule: Q01DX005 (ip), vehicle: Klucel (hydroxypropylcellulose) (HPC) 100 % of control | [9] 97 % of control | dose: 400.0 mg/kg/injection, schedule: Q01DX005 (ip), vehicle: Klucel (hydroxypropylcellulose) (HPC) 91 % of control | [10] 97 % of control

O=C1/C(=C(/c2ccccc2)N2CCOCC2)Cc2ccccc21
inactive: dose: 25.0 mg/kg/injection, schedule: Q04DX003 (ip), vehicle: saline with Tween-80 90 % of control | dose: 100.0 mg/kg/injection, schedule: Q04DX003 (ip), vehicle: saline with Tween-80 95 % of control

COC(=O)c1ccc(Cl)cc1[N+](=O)[O-]
inactive: dose: 100.0 mg/kg/injection, schedule: Q01DX009 (ip), vehicle: saline 101 % of control | dose: 200.0 mg/kg/injection, schedule: Q01DX009 (ip), vehicle: saline 100 % of control | dose: 400.0 mg/kg/injection, schedule: Q01DX009 (ip), vehicle: saline 100 % of control

COC(=O)Nc1cccc2c1-c1ccccc1C2=O
inactive: [7] 95 % of control | [8] 95 % of control | [9] 100 % of control

CCCc1nnn(S(=O)(=O)c2ccc([N+](=O)[O-])cc2)c1CCC
inactive: dose: 177.0 mg/kg/injection, schedule: Q01DX001 (ip), vehicle: other 88 % of control | dose: 266.0 mg/kg/injection, schedule: Q01DX001 (ip), vehicle: other 91 % of control | dose: 400.0 mg/kg/injection, schedule: Q01DX001 (ip), vehicle: other 96 % of control | dose: 600.0 mg/kg/injection, schedule: Q01DX001 (ip), vehicle: other 88 % of control

CC1(C)C(C)(C)C1(F)Cl
inactive: [4] 101 % of control | [5] 106 % of control | [6] 118 % of control

CC1=CC(=O)C(C)(C)CC1
inactive: dose: 50.0 mg/kg/injection, schedule: Q01DX009 (ip), vehicle: saline with Tween-80 96 % of control | dose: 100.0 mg/kg/injection, schedule: Q01DX009 (ip), vehicle: saline with Tween-80 92 % of control | dose: 200.0 mg/kg/injection, schedule: Q01DX009 (ip), vehicle: saline with Tween-80 100 % of control

Oc1ccc2ccccc2c1CNc1ccccc1
inactive: dose: 100.0 mg/kg/injection, schedule: Q04DX003 (ip), vehicle: other 88 % of control | dose: 200.0 mg/kg/injection, schedule: Q04DX003 (ip), vehicle: other 94 % of control

COc1ccc(C2NC(=O)NC2=O)cc1OC (stereo not drawn)
inactive: dose: 25.0 mg/kg/injection, schedule: Q01DX009 (ip), vehicle: saline sonified 98 % of control | dose: 50.0 mg/kg/injection, schedule: Q01DX001 (ip), vehicle: saline 102 % of control | dose: 50.0 mg/kg/injection, schedule: Q01DX009 (ip), vehicle: saline sonified 106 % of control | [1] 105 % of control | dose: 100.0 mg/kg/injection, schedule: Q01DX009 (ip), vehicle: saline sonified 101 % of control | [11] 95 % of control | [2] 105 % of control | [12] 103 % of control | [3] 105 % of control | dose: 400.0 mg/kg/injection, schedule: Q04DX003 (ip), vehicle: saline 97 % of control

N#CCCc1c(-c2ccccc2)nc(N)[nH]c1=O
inactive: dose: 100.0 mg/kg/injection, schedule: Q04DX003 (ip), vehicle: carboxymethylcellulose (CMC) 92 % of control | dose: 200.0 mg/kg/injection, schedule: Q04DX003 (ip), vehicle: carboxymethylcellulose (CMC) 92 % of control | dose: 400.0 mg/kg/injection, schedule: Q04DX003 (ip), vehicle: carboxymethylcellulose (CMC) 87 % of control

CN(C)CCOC(=O)c1ccc(CBr)cc1
inactive: dose: 10.0 mg/kg/injection, schedule: Q01DX009 (ip), vehicle: saline 97 % of control | dose: 20.0 mg/kg/injection, schedule: Q01DX009 (ip), vehicle: saline 95 % of control | dose: 40.0 mg/kg/injection, schedule: Q01DX009 (ip), vehicle: saline 93 % of control | dose: 87.5 mg/kg/injection, schedule: Q01DX009 (ip), vehicle: saline 101 % of control

COc1cc(/C=N/NC(=O)c2ccccc2)ccc1O
inactive: [8] 100 % of control | [9] 95 % of control | [10] 94 % of control

COc1ccc(CC[n+]2cccc(C#N)c2)cc1OC
inactive: dose: 75.0 mg/kg/injection, schedule: Q01DX001 (ip), vehicle: carboxymethylcellulose (CMC) 105 % of control | dose: 150.0 mg/kg/injection, schedule: Q01DX001 (ip), vehicle: carboxymethylcellulose (CMC) 100 % of control

Nc1cc2ccc(S(=O)(=O)O)cc2cc1S(=O)(=O)O
inactive: [8] 100 % of control | [9] 97 % of control | [10] 91 % of control

CC(C)(O)C(Cl)(Cl)Cl
inactive: [8] 101 % of control | [11] 98 % of control | [9] 95 % of control | [12] 100 % of control
